Legend:
[1] = Antioxidant activity assessed as trolox equivalent of APPH-induced peroxyl radical scavenging activity measured every 2 mins by ORAC fluorescence assay; type: functional
[2] = Antiosteoporotic activity in alpha-MEM-induced C57BL/6 mouse MC3T3-E1 cells assessed as increase in mineralization by measuring calcium deposition at 5 uM by Alizarin Red staining assay relative to control; type: functional
[3] = Antiosteoporotic activity in alpha-MEM-induced C57BL/6 mouse MC3T3-E1 cells assessed as increase in collagen synthesis at 5 uM by Sirius Red-based colorimetric assay relative to control; type: functional
[4] = Antioxidant activity assessed as reduction of Cu2+ to Cu+ at 10 uM; type: functional
[5] = Antiosteoporotic activity in C57BL/6 mouse MC3T3-E1 cells assessed as increase in mineralization by measuring calcium deposition at 5 uM by Alizarin Red staining assay relative to control; type: functional
[6] = biological target: T1, Tartrate-resistant acid phosphatase type 5 (Mus musculus) (UniProt Q05117); assay: Inhibition of TRAP activity in RANKL-induced Balb/c mouse RAW264.7 cells at 10 uM after 1 hr by ELISA relative to control; type: cell-based
T1 sequence (whole entry): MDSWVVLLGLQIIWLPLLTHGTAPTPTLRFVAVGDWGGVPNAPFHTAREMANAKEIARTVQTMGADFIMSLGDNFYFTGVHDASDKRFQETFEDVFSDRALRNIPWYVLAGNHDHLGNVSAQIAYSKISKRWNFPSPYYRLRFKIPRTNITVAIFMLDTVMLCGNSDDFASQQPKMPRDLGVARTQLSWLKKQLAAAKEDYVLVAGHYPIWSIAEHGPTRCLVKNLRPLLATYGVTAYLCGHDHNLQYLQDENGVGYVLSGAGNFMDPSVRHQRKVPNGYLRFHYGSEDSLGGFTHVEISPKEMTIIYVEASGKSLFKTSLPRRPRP

[7] = Antioxidant activity assessed as trolox equivalent of APPH-induced peroxyl radical scavenging activity at 1 uM measured every 2 mins by ORAC fluorescence assay; type: functional
[8] = Antiosteoporotic activity in C57BL/6 mouse MC3T3-E1 cells assessed as increase in collagen synthesis at 5 uM by Sirius Red-based colorimetric assay relative to control; type: functional
[9] = biological target: T1, Tartrate-resistant acid phosphatase type 5 (Mus musculus); assay: Inhibition of TRAP activity in RANKL-induced Balb/c mouse RAW264.7 cells at 1 uM after 1 hr by ELISA relative to control; type: cell-based
[10] = biological target: T1, Tartrate-resistant acid phosphatase type 5 (Mus musculus); assay: Inhibition of TRAP activity in Balb/c mouse RAW264.7 cells at 10 uM after 1 hr by ELISA relative to control; type: cell-based

Row | Structure (SMILES) | TRAP activity (% of control) [6] | inhibition [9] | inhibition [10] | Activity [1] | Activity [2] | Activity [3] | Activity [4] | Activity [5] | Activity [7] | Activity [8]
1 | O=c1c(O[C@@H]2O[C@H](CO)[C@@H](O)[C@H](O)[C@H]2O)c(-c2ccc(O)c(O)c2)oc2cc(O)cc(O)c12 [ISOQUERCETIN] | 82.9% | 76.6% |  | Dose-dependent effect | 107.58% | 112.49% | 21.3 µM | 181.25% | 4.4 µM | 261.95%
2 | Oc1cc(O)c2c(c1)O[C@H](c1ccc(O)c(O)c1)[C@H](O)C2 [(-)-EPICATECHIN] | 84% | 78.3% |  | Dose-dependent effect | 111.92% | 105.69% | 25.7 µM | 188.57% | 4.49 µM | 246.13%
3 | C[C@@H]1O[C@@H](OC[C@H]2O[C@@H](Oc3c(-c4ccc(O)c(O)c4)oc4cc(O)cc(O)c4c3=O)[C@H](O)[C@@H](O)[C@@H]2O)[C@H](O)[C@H](O)[C@H]1O [RUTIN] | 71.7% | 78% | 146% | Dose-dependent effect | 103.24% | 100.09% | 30.1 µM | 173.94% | 3.78 µM | 233.08%
4 | C[C@@H]1O[C@@H](O[C@H]2[C@H](Oc3c(-c4ccc(O)c(O)c4)oc4cc(O)cc(O)c4c3=O)O[C@H](CO)[C@H](O)[C@@H]2O)[C@H](O)[C@H](O)[C@H]1O | 128% | 101% |  | Dose-dependent effect | 104.72% | 96.59% | 19.4 µM | 176.44% | 3.36 µM | 224.92%

Further lines, with some results ahead:

Row | TRAP activity (% of control) [6] | inhibition [9] | inhibition [10] | Structure (SMILES) | Activity [1] | Activity [2] | Activity [3] | Activity [4] | Activity [5] | Activity [7] | Activity [8]
5 | 107% | 98% |  | Oc1cc(O)c2c(c1)O[C@@]1(c3ccc(O)c(O)c3)O[C@H]1[C@@H]2c1c(O)cc(O)c2c1O[C@H](c1ccc(O)c(O)c1)[C@H](O)C2 | Dose-dependent effect | 109.85% | 103.38% | 34.7 µM | 185.08% | 5.22 µM | 240.74%
6 | 85.6% | 78.5% |  | Oc1ccc([C@@]23Oc4cc(O)cc(O)c4[C@@H](c4c(O)cc(O)c5c4O[C@H](c4ccc(O)c(O)c4)[C@H](O)C5)[C@@H]2O3)cc1 | Dose-dependent effect | 89.84% | 77.16% | 29.9 µM | 151.36% | 5.42 µM | 179.68%
